Experimental data published in patent US20230330134A1, “METHOD OF PROPHYLAXIS OF CORONAVIRUS AND/OR RESPIRATORY SYNCYTIAL VIRUS INFECTION” (Starpharma Pty Ltd., priority 2020, published 2023).
Read-outs that look alike come from different tables or passages of the source.

What was measured:
[1] = tested on: Coronavirus strain NL63 (ZeptoMetrix Corp. #0810228CF); conditions: final 28.76 mg/mL; for CPE in four replicates, Test: Vero
[2] = tested on: Human Respiratory Syncytial Virus; assay: Antiviral pre-treatment and post-treatment plaque tests (RSV); type: cell-based, Human respiratory syncytial virus (HRSV); conditions: Hep-2 cells
Protocol: The concentrations of the Test Product were prepared using approximately 1:3 dilutions from the starting concentration determined following the cytotoxicity test.
The host cell culture was washed with PBS, and 1.0 mL aliquots of test product dilutions added to the cells. Cells were then incubated for 1 hour ± 15 minutes for equilibration. After the incubation, 1.0 mL aliquots of virus was added to the wells and incubated for 1 hour ± 15 minutes for virus adsorption. Following incubation, the mixture was removed and replaced with TM. The plates were then incubated in a CO2 incubator. The plates were incubated until viral plaques in the virus control could be microscopically registered (approximately 5-10 days).
Fixed cells were stained using Crystal Violet stain. Unstained zones of cell lysis (viral plaques) were counted.
The concentrations of the test product were prepared using approximately 1:3 dilutions from the starting concentration determined following the cytotoxicity test.
The host cell culture was washed with PBS, and 1.0 mL aliquots of virus added to the wells and incubated for 1 hour ± 15 minutes for virus adsorption. After incubation, virus inoculum was removed and replaced with aliquots of the test product concentrations in TM. The plates were then incubated in a CO2 incubator. The plates were then incubated until viral plaques in the virus control can be microscopically registered (approximately 5-10 days).
For the cell culture control, intact cell culture monolayers were used as the control of cell viability. The GM was replaced by TM in the cell culture control wells. […] Fixed cells were stained using Crystal Violet stain. Unstained zones of cell lysis (viral plaques) were counted.
Assessment of antiviral properties: The antiviral properties EC50 and/or EC90 was determined using non-linear regression analysis, GraphPad Prism 5.0 software.

[3] = tested on: Coronavirus strain OC43 (ZeptoMetrix Corp. #0810024CF); conditions: final 28.76 mg/mL; for CPE in four replicates, Test: HCT-8
[4] = tested on: SARS-CoV-2 (2019-nCoV/USA-WA1/2020); assay: Virucidal evaluation with neutralization through sucrose cushion, plaque assay; type: cell-based; conditions: for Reduction vs. Virus Control (%) / Reduction vs. Virus Control (Log10± SD): 10 mg/mL
MRC-5 cells = conditions: no virus
[5] = 60 seconds exposure, dilution (-Log10) -6
[6] = 60 seconds exposure, dilution (-Log10) -7
[7] = 60 seconds exposure, listed as SPL7013 aqueous solution
[8] = 60 minutes exposure, dilution (-Log10) -6
[9] = 60 minutes exposure, dilution (-Log10) -7
[10] = 10^4 pfu/mL, 5 sec incubation, 96 hours post-infection, Vero E6
[11] = 10^4 pfu/mL, 10 sec incubation, 96 hours post-infection, Vero E6
[12] = 10^4 pfu/mL, 30 sec incubation, 16 hours post-infection, Vero E6
[13] = 10^4 pfu/mL, 30 sec incubation, 96 hours post-infection, Vero E6
[14] = 10^4 pfu/mL, 1 min incubation, 16 hours post-infection, Vero E6
[15] = 10^4 pfu/mL, 1 min incubation, 96 hours post-infection, Vero E6
[16] = 10^4 pfu/mL, 5 min incubation, 16 hours post-infection, Vero E6
[17] = 10^4 pfu/mL, 10 min incubation, 96 hours post-infection, Vero E6
[18] = 10^4 pfu/mL, 15 min incubation, 16 hours post-infection, Vero E6
[19] = 10^4 pfu/mL, 15 min incubation, 96 hours post-infection, Vero E6
[20] = 10^5 pfu/mL, 5 sec incubation, 96 hours post-infection, Vero E6
[21] = 10^5 pfu/mL, 10 sec incubation, 96 hours post-infection, Vero E6
[22] = 10^5 pfu/mL, 30 sec incubation, 16 hours post-infection, Vero E6
[23] = 10^5 pfu/mL, 30 sec incubation, 96 hours post-infection, Vero E6
[24] = 10^5 pfu/mL, 1 min incubation, 16 hours post-infection, Vero E6
[25] = 10^5 pfu/mL, 1 min incubation, 96 hours post-infection, Vero E6
[26] = 10^5 pfu/mL, 5 min incubation, 16 hours post-infection, Vero E6
[27] = 10^5 pfu/mL, 10 min incubation, 96 hours post-infection, Vero E6
[28] = 10^5 pfu/mL, 15 min incubation, 16 hours post-infection, Vero E6
[29] = 10^5 pfu/mL, 15 min incubation, 96 hours post-infection, Vero E6
[30] = 10^6 pfu/mL, 5 sec incubation, 96 hours post-infection, Vero E6
[31] = 10^6 pfu/mL, 10 sec incubation, 96 hours post-infection, Vero E6
[32] = 10^6 pfu/mL, 30 sec incubation, 96 hours post-infection, Vero E6
[33] = 10^6 pfu/mL, 1 min incubation, 96 hours post-infection, Vero E6
[34] = 10^6 pfu/mL, 10 min incubation, 96 hours post-infection, Vero E6
[35] = 10^6 pfu/mL, 15 min incubation, 96 hours post-infection, Vero E6

With astodrimer sodium [SPL7013] the “CPE in four replicates, Test” value [1, 5] was 0000, the “CPE in four replicates, Test” value [1, 6] was 0000 and the “Log10 Reduction” value ([1]; 60 seconds exposure) was 0.50 log10. For the same substance, the “TCID50 (log10), Test” value ([1]; 60 seconds exposure) was 5.25 log10, the “Percent Reduction” value [1, 7] was 68.38% and the “CPE in four replicates, Test” value [1, 8] was 0000. For the same substance, the “CPE in four replicates, Test” value [1, 9] was 0000, the “Log10 Reduction” value ([1]; 60 minutes exposure) was 0.75 log10 and the “Percent Reduction” value ([1]; 60 minutes exposure) was 82.22%. For the same substance, the “TCID50 (log10), Test” value ([1]; 60 minutes exposure) was 5.00 log10, the “EC50, Best Fit Value” ([2]; Post Treatment) was 107 µg/mL and the “EC90, Best Fit Value” ([2]; Post Treatment) was 1159 µg/mL. The “EC50, Best Fit Value” ([2]; PreTreatment) was 45 µg/mL, the “EC90, Best Fit Value” ([2]; PreTreatment) was 180 µg/mL and the “CPE in four replicates, Test” value [3, 5] was 0000. For the same substance, the “CPE in four replicates, Test” value [3, 6] was 0000, the “Log10 Reduction” value ([3]; 60 seconds exposure) was 0.50 log10 and the “TCID50 (log10), Test” value ([3]; 60 seconds exposure) was 5.50 log10. For the same substance, the “Percent Reduction” value [3, 7] was 68.38%, the “CPE in four replicates, Test” value [3, 8] was “+000” and the “CPE in four replicates, Test” value [3, 9] was 0000. For the same substance, the “Log10 Reduction” value ([3]; 60 minutes exposure) was 0.50 log10, the “Percent Reduction” value ([3]; 60 minutes exposure) was 68.38% and the “TCID50 (log10), Test” value ([3]; 60 minutes exposure) was 5.25 log10. For the same substance, the “Reduction vs. Virus Control (%)” value [4, 10] was -35.936%, the “Reduction vs. Virus Control (Log10± SD)” value [4, 10] was -0.13 ± 0.21 Log10 and the “Reduction vs. Virus Control (%)” value [4, 11] was 14.230%. For the same substance, the “Reduction vs. Virus Control (Log10± SD)” value [4, 11] was 0.07 ± 0.29 Log10, the “Reduction vs. Virus Control (%)” value [4, 12] was 36.904% and the “Reduction vs. Virus Control (Log10± SD)” value [4, 12] was 0.20 ± 0.20 Log10. The “Reduction vs. Virus Control (%)” value [4, 13] was 20.567%, the “Reduction vs. Virus Control (Log10± SD)” value [4, 13] was 0.10 ± 0.10 Log10 and the “Reduction vs. Virus Control (%)” value [4, 14] was 99.932%. For the same substance, the “Reduction vs. Virus Control (Log10± SD)” value [4, 14] was 3.17 ± 0.12 Log10, the “Reduction vs. Virus Control (%)” value [4, 15] was 20.567% and the “Reduction vs. Virus Control (Log10± SD)” value [4, 15] was 0.10 ± 0.00 Log10. For the same substance, the “Reduction vs. Virus Control (%)” value [4, 16] was 99.979%, the “Reduction vs. Virus Control (Log10± SD)” value [4, 16] was 3.67 ± 0.21 Log10 and the “Reduction vs. Virus Control (%)” value [4, 17] was over 99.999%. The “Reduction vs. Virus Control (Log10± SD)” value [4, 17] was 5.07 ± 0.25 Log10, the “Reduction vs. Virus Control (%)” value [4, 18] was 99.990% and the “Reduction vs. Virus Control (Log10± SD)” value [4, 18] was 4.00 ± 0.10 Log10. For the same substance, the “Reduction vs. Virus Control (%)” value [4, 19] was over 99.999%, the “Reduction vs. Virus Control (Log10± SD)” value [4, 19] was 5.83 ± 0.12 Log10 and the “Reduction vs. Virus Control (%)” value [4, 20] was 53.584%. The “Reduction vs. Virus Control (Log10± SD)” value [4, 20] was 0.33 ± 0.21 Log10, the “Reduction vs. Virus Control (%)” value [4, 21] was 41.566% and the “Reduction vs. Virus Control (Log10± SD)” value [4, 21] was 0.23 ± 0.06 Log10. For the same substance, the “Reduction vs. Virus Control (%)” value [4, 22] was 0.000%, the “Reduction vs. Virus Control (Log10± SD)” value [4, 22] was 0.00 ± 0.36 Log10 and the “Reduction vs. Virus Control (%)” value [4, 23] was 49.881%. The “Reduction vs. Virus Control (Log10± SD)” value [4, 23] was 0.30 ± 0.17 Log10, the “Reduction vs. Virus Control (%)” value [4, 24] was 99.767% and the “Reduction vs. Virus Control (Log10± SD)” value [4, 24] was 2.63 ± 0.15 Log10. For the same substance, the “Reduction vs. Virus Control (%)” value [4, 25] was 65.855%, the “Reduction vs. Virus Control (Log10± SD)” value [4, 25] was 0.47 ±0.21 Log10 and the “Reduction vs. Virus Control (%)” value [4, 26] was 99.998%. For the same substance, the “Reduction vs. Virus Control (Log10± SD)” value [4, 26] was 4.63 ± 0.31 Log10, the “Reduction vs. Virus Control (%)” value [4, 27] was 99.980% and the “Reduction vs. Virus Control (Log10± SD)” value [4, 27] was 3.70 ± 0.26 Log10. The “Reduction vs. Virus Control (%)” value [4, 28] was 99.998%, the “Reduction vs. Virus Control (Log10± SD)” value [4, 28] was 4.60 ± 0.10 Log10 and the “Reduction vs. Virus Control (%)” value [4, 29] was 99.998%. For the same substance, the “Reduction vs. Virus Control (Log10± SD)” value [4, 29] was 4.60 ± 0.10 Log10, the “Reduction vs. Virus Control (%)” value [4, 30] was 20.567% and the “Reduction vs. Virus Control (Log10± SD)” value [4, 30] was 0.10 ± 0.20 Log10. For the same substance, the “Reduction vs. Virus Control (%)” value [4, 31] was 7.388%, the “Reduction vs. Virus Control (Log10± SD)” value [4, 31] was 0.03 ± 0.06 Log10 and the “Reduction vs. Virus Control (%)” value [4, 32] was 20.567%. For the same substance, the “Reduction vs. Virus Control (Log10± SD)” value [4, 32] was 0.10 ± 0.10 Log10, the “Reduction vs. Virus Control (%)” value [4, 33] was 53.584% and the “Reduction vs. Virus Control (Log10± SD)” value [4, 33] was 0.33 ± 0.12 Log10. The “Reduction vs. Virus Control (%)” value [4, 34] was 99.369%, the “Reduction vs. Virus Control (Log10± SD)” value [4, 34] was 2.20 ± 0.10 Log10 and the “Reduction vs. Virus Control (%)” value [4, 35] was 99.979%. For the same substance, the “Reduction vs. Virus Control (Log10± SD)” value [4, 35] was 3.67 ± 0.23 Log10, the “reduction in virus infectivity” value ([4]; 1 to 30 mg/mL, inoculums 10^4, 10^5 and 10^6 pfu/mL, 10 to 15 minutes exposure) was over 99.9% and the “reduction in virus infectivity” value ([4]; 10^4 pfu/mL viral inoculum, 10 to 30 mg/mL, 10 to 15 min incubation) was over 99.999%. It also gave an SARS-CoV-2 inactivated ([4]; >10 mg/mL, 10^4 pfu/mL, within as little as 1 minute of exposure, 16 hours post-infection) of over 99.9%, a reduced infectivity ([4]; Vero E6, 10^6 pfu/mL, incubation 15 to 30 minutes, 10 to 30 mg/mL) of over 99.999% and a reduction of infectivity ([4]; after 1 minute of exposure to the virus) of over 99.9%. For the same substance, the virucidal effect ([4]; exposure to virus for 30 seconds) was “no detectable virucidal effect”, the “TCID50 (log10), CTC (Cytotoxicity Control)” value (MRC-5 cells) was 1.50 log10 and the “CPE in four replicates, CTC (Cytotoxicity Control)” value (from here on “CPE in four replicates, CTC”) (MRC-5 cells; dilution (-Log10) -2) was 0000. The “CPE in four replicates, CTC” value (MRC-5 cells; dilution (-Log10) -3) was 0000 and the “CPE in four replicates, CTC” value (MRC-5 cells; dilution (-Log10) -4) was 0000.
